Measured values published in patent publication US12319664B2, “Herbicidally active 3-phenylisoxazoline-5-carboxamides of cyclopentenylcarboxylic acid derivatives” (Bayer Aktiengesellschaft, priority 2018, dated 2025).

Columns and labels:
ALOMY = assay: Post-emergence herbicidal action against ALOMY; format: in vivo, Alopecurus myosuroides; settings: application rate 80 g/ha, rated visually after about 3 weeks
Summary of the method: (§1)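 One-leaf-stage plants (2–3 weeks after sowing in sandy loam) received a foliar spray of WP- or EC-formulated compound in water with 0.5% additive at 600 l/ha. Plants stayed under optimum greenhouse conditions for about 3 weeks before visual scoring against controls.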

VIOTR = assay: Post-emergence herbicidal action against VIOTR; format: in vivo, Viola tricolor; settings: application rate 80 g/ha, rated visually about 3 weeks after treatment
Summary of the method: as §1

AVEFA = assay: Post-emergence herbicidal action against AVEFA; format: in vivo, Avena fatua; settings: application rate 80 g/ha, rated visually after about 3 weeks
Summary of the method: as §1

POLCO = assay: Post-emergence herbicidal action against POLCO; format: in vivo, Polygonum convolvulus; settings: application rate 80 g/ha, rated visually about 3 weeks after treatment
Summary of the method: as §1

VERPE = assay: Post-emergence herbicidal action against VERPE; format: in vivo, Veronica persica; settings: application rate 80 g/ha
Summary of the method: as §1

AMARE = assay: Post-emergence herbicidal action against AMARE; format: in vivo, Amaranthus retroflexus; settings: application rate 80 g/ha, rated visually about 3 weeks after treatment
Summary of the method: as §1

STEME = assay: Post-emergence herbicidal action against STEME; format: in vivo, Stellaria media; settings: application rate 80 g/ha, rated visually about 3 weeks after treatment
Summary of the method: as §1

HORMU = assay: Post-emergence herbicidal action against HORMU; format: in vivo, Hordeum murinum; settings: application rate 80 g/ha
Summary of the method: as §1

SETVI = assay: Post-emergence herbicidal action against SETVI; format: in vivo, Setaria viridis; settings: application rate 80 g/ha, rated visually after about 3 weeks
Summary of the method: as §1

ECHCG = assay: Post-emergence herbicidal action against ECHCG; format: in vivo, Echinochloa crus-galli; settings: application rate 80 g/ha, rated visually after about 3 weeks
Summary of the method: as §1

LOLRI = assay: Post-emergence herbicidal action against LOLRI; format: in vivo, Lolium rigidum; settings: application rate 80 g/ha, rated visually after about 3 weeks
Summary of the method: as §1

MATIN = assay: Post-emergence herbicidal action against MATIN; format: in vivo, Matricaria inodora; settings: application rate 80 g/ha, rated visually about 3 weeks after treatment
Procedure: [table] 2. Post-emergence herbicidal action against harmful plants and crop plant compatibility Seeds of monocotyledonous and dicotyledonous weeds and crop plants are placed in sandy loam in plastic or wood-fibre pots, covered with soil and cultivated in a greenhouse under controlled growth conditions. 2 to 3 weeks after sowing, the test plants are treated at the one-leaf stage. The compounds of the invention, formulated in the form of wettable powders (WP) or as emulsion concentrates (EC), are then sprayed onto the green parts of the plants as aqueous suspension or emulsion with addition of 0.5% additive at a water application rate of 600 l/ha (converted). After the test plants have been kept in the greenhouse under optimum growth conditions for about 3 weeks, the activity of the preparations is rated visually in comparison to untreated controls. For example, 100% activity=the plants have died, 0% activity=like control plants.

ABUTH = assay: Post-emergence herbicidal action against ABUTH; format: in vivo, Abutilon theophrasti; settings: application rate 80 g/ha, rated visually about 3 weeks after treatment
Summary of the method: as §1

PHBPU = assay: Post-emergence herbicidal action against PHBPU; format: in vivo, Pharbitis purpurea; settings: application rate 80 g/ha, rated visually about 3 weeks after treatment
Summary of the method: as §1

| SMILES | Herbicidal action against [%] ALOMY (ALOMY) [%] | Herbicidal action against [%] VIOTR (VIOTR) [%] | Herbicidal action against [%] AVEFA (AVEFA) [%] | Herbicidal action against [%] POLCO (POLCO) [%] | Herbicidal action against [%] VERPE (VERPE) [%] | Herbicidal action against [%] AMARE (AMARE) [%] | Herbicidal action against [%] STEME (STEME) [%] | Herbicidal action against [%] HORMU (HORMU) [%] | Herbicidal action against [%] SETVI (SETVI) [%] | Herbicidal action against [%] ECHCG (ECHCG) [%] | Herbicidal action against [%] LOLRI (LOLRI) [%] | Herbicidal action against [%] MATIN (MATIN) [%] | Herbicidal action against [%] ABUTH (ABUTH) [%] | Herbicidal action against [%] PHBPU (PHBPU) [%] |
| --- | --- | --- | --- | --- | --- | --- | --- | --- | --- | --- | --- | --- | --- | --- |
| C=CC1(C(=O)N[C@H]2C=C[C@@H](C(=O)OCCC(F)(F)F)C2)CC(c2cc(F)cc(F)c2)=NO1 (stereo partly drawn) [Example I-017] | 100 | 80 | 100 | 90 | 90 | 90 | 100 | 100 | 90 | 100 | 100 | 80 | 100 | – |
| CC1(C(=O)N[C@H]2C=C[C@@H](C(=O)OCCCl)C2)CC(c2cc(F)cc(F)c2)=NO1 (stereo partly drawn) [Example I-009] | 90 | – | 90 | 90 | 90 | – | 90 | 90 | 90 | 90 | 90 | 90 | 90 | 90 |
| C=CC1(C(=O)N[C@H]2C=C[C@@H](C(=O)OCC(F)(F)F)C2)CC(c2cc(F)cc(F)c2)=NO1 (stereo partly drawn) [Example I-015] | 100 | 90 | 100 | 100 | 90 | 100 | 100 | 100 | 90 | 100 | 100 | 80 | 90 | – |
| CCOC(=O)C1C=CC(NC(=O)C2(C)CC(c3cc(F)cc(F)c3)=NO2)C1 (mixture of isomers) [Example I-059] | 90 | – | 100 | 80 | 80 | 80 | 90 | 90 | 90 | 100 | 100 | 90 | – | 80 |
| CCOC(=O)[C@@H]1C=C[C@H](NC(=O)C2(C(F)(F)F)CC(c3cc(C)cc(F)c3)=NO2)C1 (stereo partly drawn) [Example I-022] | 100 | 80 | 100 | 100 | 80 | 100 | – | 80 | 100 | 80 | 100 | 80 | 90 | – |
| CCOC(=O)C1C=CC(NC(=O)C2(C(F)(F)F)CC(c3cc(C)cc(C(F)(F)F)c3)=NO2)C1 (mixture of isomers) [Example I-036] | 90 | 90 | 80 | 90 | 80 | 80 | – | 80 | – | – | 90 | 80 | 80 | – |
| Cc1cc(F)cc(C2=NOC(C(=O)NC3C=CC(C(=O)OCC(F)(F)F)C3)(C(F)(F)F)C2)c1 (mixture of isomers) [Example I-032] | 90 | 80 | 100 | 100 | 80 | 90 | – | 80 | 90 | – | 90 | 80 | – | – |
| CC1(C(=O)N[C@H]2C=C[C@@H](C(=O)OCc3ccccc3)C2)CC(c2cc(F)cc(F)c2)=NO1 (stereo partly drawn) [Example I-008] | 100 | – | 90 | 90 | 90 | 90 | 90 | 90 | 90 | 90 | 90 | 90 | 90 | 90 |
| COC(=O)[C@@H]1C=C[C@H](NC(=O)C2(C(F)(F)F)CC(c3cc(C)cc(F)c3)=NO2)C1 (stereo partly drawn) [Example I-024] | 90 | 80 | 100 | 90 | 80 | 90 | – | 80 | 80 | 90 | 90 | 80 | 80 | – |
| COC(=O)[C@@H]1C=C[C@H](NC(=O)C2(C(F)(F)F)CC(c3cc(C)cc(Cl)c3)=NO2)C1 (stereo partly drawn) [Example I-027] | 90 | 80 | 90 | – | 80 | 80 | 80 | 80 | 90 | 80 | 90 | 90 | 80 | – |
| COC(=O)C1C=CC(NC(=O)C2(C(F)(F)F)CC(c3cc(Cl)cc(Cl)c3)=NO2)C1 (mixture of isomers) [Example I-039] | 100 | – | 90 | – | 80 | 80 | 90 | 80 | 80 | 90 | 100 | 80 | 80 | 80 |
| C=CC1(C(=O)NC2C=CC(C(=O)OCc3ccccc3)C2)CC(c2cc(F)cc(F)c2)=NO1 (mixture of isomers) [Example I-033] | 90 | – | 90 | 100 | 80 | 90 | 80 | 80 | 90 | 90 | 90 | 90 | 80 | 80 |
| COC(=O)C1C=CC(NC(=O)C2(C(F)(F)F)CC(c3cc(C)cc(C(F)(F)F)c3)=NO2)C1 (mixture of isomers) [Example I-048] | 100 | – | 90 | – | 80 | – | 90 | 90 | – | 80 | 80 | 80 | 80 | 80 |
| C=CC1(C(=O)NC2C=CC(C(=O)NS(=O)(=O)CCC)C2)CC(c2cc(F)cc(F)c2)=NO1 (mixture of isomers) [II-14] | 100 | 90 | 100 | 90 | 90 | 90 | – | 90 | 90 | 100 | 100 | 90 | – | – |
